Source: PubChem BioAssay AID1919004 (Molecular Pharmacology Branch, DTP, NCI, 2023)
Where “and” joins values, the source holds several entries; their conditions need not be identical. Equal entries are not always repeated.

Test system: 883617-216-R-J1-PDC complex spheroids, growth, % test/control
Test: Anticancer human tumor 883617-216-R-J1-PDC patient-derived bladder carcinoma cell line growth inhibition [AhR]
Conditions: for viability, T/C: stronger effect = lower value
Excerpt: Multicellular complex tumor spheroid response to aryl hydrocarbon receptor antagonists in combination with a variety of drugs and investigational agents in selected tumor cell lines
The current study was undertaken to assess response to aryl hydrocarbon receptor antagonists in combination with standard-of-care drugs and investigational agents in solid tumor complex spheroid models. Complex spheroids include a stromal component modeled by human endothelial cells (HUVEC) and fibroblasts modeled by human mesenchymal stem cells (MSCs). The concentration ranges selected for each drug and investigational agent were based upon clinically achievable concentrations if the clinical Cmax of the agent was known.
Compounds. The drugs and investigational agents: BAY 2416964 (NSC825713), GNF351 (NSC835774), CH-223191 (NSC835775), CPI-455 (NSC825282), aza-TdCyd (NSC777586), decitabine (NSC127716), belinostat (NSC758774), entinostat (NSC756642), pevonedistat (NSC761192), tazemetostat (NSC777109), talazoparib (NSC765396), olaparib (NSC753686), selinexor (NSC780203), nedisertib (M3814, NSC802822), bortezomib (NSC756655), venetoclax (NSC766270), doxorubicin (NSC123127), elimusertib (BAY189344, NSC800525), ceralasertib (AZD6738, NSC777638), TAK-243 (NSC785004), alisertib (NSC759677), etoposide (NSC141540), topotecan (NSC609699), eribulin (NSC707389), gemcitabine (NSC613327), carboplatin (NSC241240), cisplatin (NSC119875), and SN-38 (NSC673596) were obtained from the National Cancer Institute (NCI) Developmental Therapeutics Program Chemical Repository (32). The FDA-approved anticancer drug set is available from the Developmental Therapeutics Program at https://dtp.cancer.gov/organization/dscb/obtaining/available plates.htm. […] The stock solutions were prepared in dimethyl sulfoxide (DMSO, Sigma-Aldrich, St. Louis, MO, cat. D2650), except for the platinum compounds which were prepared in saline (Quality Biological, Gaithersburg, MD, cat. 114-055-101), at 800-fold the tested concentration and stored at -70 degrees C prior to their use. All drugs and investigational agents were tested over a range starting from a high concentration at or near the clinical Cmax and decreasing in half-log increments. If the clinical Cmax for an agent had not been determined, the highest concentration tested was 10 microM (Table 1).
Cell Culture. All cells were maintained in an incubator at 37 degrees C and 5% CO2 with 95% humidity. The PDC lines were cultured according to standard operating procedures established by the NCI PDMR (https://pdmr.cancer.gov). Briefly, all PDCs were thawed and cultured in Matrigel-coated flasks prepared with a working solution of 1X Ham's F-12 nutrient mix, without supplementation (Invitrogen, Waltham, MA, cat. 11765054), 100 U/mL penicillin-streptomycin (Invitrogen, cat. 15140122), and 2.5% Matrigel (Corning Inc., Corning, NY, cat. 354248) for the first three passages. All PDCs were cultured in complete DMEM/F-12 media containing advanced DMEM/F-12 (Invitrogen, cat. 12634028), 4.9% defined fetal bovine serum, heat inactivated (HyClone Laboratories Inc., Logan, UT, cat. SH30070.03HI), 389 ng/mL hydrocortisone (Sigma-Aldrich, cat. H4001), 9.7 ng/mL human EGF recombinant protein (Invitrogen, cat. PHG0313), 23.4 microg/mL adenine (Sigma-Aldrich, cat. A2786), 97.3 U/mL penicillin-streptomycin (Invitrogen, cat. 15140122), 1.9 mM L-glutamine (Invitrogen, cat. 25030081), and 9.7 microM Y-27632 dihydrochloride (Tocris Bioscience, Bristol, United Kingdom, cat. 1254). The PDCs were cultured in complete DMEM/F12 media without 10 microM Y-27632 dihydrochloride for at least two passages prior to the screen. The established cell lines NCI-H1341 and […] were cultured in DMEM/F-12, HEPES (Invitrogen, cat. 11330032), 5% defined fetal bovine serum (HyClone Laboratories Inc., cat. SH30070.03), ITS premix universal culture supplement [insulin (5 microg/mL), transferrin (5 microg/mL), and selenious acid (5 ng/mL)] […]

[1] = curve of first compound, second compound 0.1 µM
[2] = curve of first compound, second compound 0.316 µM
[3] = curve of first compound, second compound 1 µM
[4] = curve of first compound, second compound 3.16 µM
[5] = curve of first compound, second compound 10 µM
[6] = second compound 0.1 µM, first compound 0.0316 µM
[7] = second compound 0.1 µM, first compound 0.1 µM
[8] = second compound 0.1 µM, first compound 0.316 µM
[9] = second compound 0.1 µM, first compound 1 µM
[10] = second compound 0.1 µM, first compound 3.16 µM
[11] = second compound 0.1 µM, first compound 10 µM
[12] = second compound 0.316 µM, first compound 0.0316 µM
[13] = second compound 0.316 µM, first compound 0.1 µM
[14] = second compound 0.316 µM, first compound 0.316 µM
[15] = second compound 0.316 µM, first compound 1 µM
[16] = second compound 0.316 µM, first compound 3.16 µM
[17] = second compound 0.316 µM, first compound 10 µM
[18] = second compound 1 µM, first compound 0.0316 µM
[19] = second compound 1 µM, first compound 0.1 µM
[20] = second compound 1 µM, first compound 0.316 µM
[21] = second compound 1 µM, first compound 1 µM
[22] = second compound 1 µM, first compound 3.16 µM
[23] = second compound 1 µM, first compound 10 µM
[24] = second compound 3.16 µM, first compound 0.0316 µM
[25] = second compound 3.16 µM, first compound 0.1 µM
[26] = second compound 3.16 µM, first compound 0.316 µM
[27] = second compound 3.16 µM, first compound 1 µM
[28] = second compound 3.16 µM, first compound 3.16 µM
[29] = second compound 3.16 µM, first compound 10 µM
[30] = second compound 10 µM, first compound 0.0316 µM
[31] = second compound 10 µM, first compound 0.1 µM
[32] = second compound 10 µM, first compound 0.316 µM
[33] = second compound 10 µM, first compound 1 µM
[34] = second compound 10 µM, first compound 3.16 µM
[35] = second compound 10 µM, first compound 10 µM
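Also: exposure lasted 7 days after dosing on day 3 of spheroid growth.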

Structure (SMILES) | IC50 [1] [µM] | IC50 [2] [µM] | IC50 [3] [µM] | IC50 [4] [µM] | IC50 [5] [µM] | viability, T/C [6] [%] | viability, T/C [7] [%] | viability, T/C [8] [%] | viability, T/C [9] [%] | viability, T/C [10] [%] | viability, T/C [11] [%] | viability, T/C [12] [%] | viability, T/C [13] [%] | viability, T/C [14] [%] | viability, T/C [15] [%] | viability, T/C [16] [%] | viability, T/C [17] [%] | viability, T/C [18] [%] | viability, T/C [19] [%] | viability, T/C [20] [%] | also measured
CC1(C)CCC(CN2CCN(c3ccc(C(=O)NS(=O)(=O)c4ccc(NCC5CCOCC5)c([N+](=O)[O-])c4)c(Oc4cnc5[nH]ccc5c4)c3)CC2)=C(c2ccc(Cl)cc2)C1 + Cc1ccccc1N=Nc1ccc(NC(=O)c2ccnn2C)c(C)c1 | > 10 | > 10 | > 10 | > 10 | > 10 | 97.5 | 90.6 | 97 | 99.9 | 88.5 | 61.4 | 95.5 | 85.9 | 88.9 | 85.3 | 83.9 | 54.9 | 97.8 | 85.4 | 82.5 | viability, T/C [21]: 80.2%; viability, T/C [22]: 79.7%; viability, T/C [23]: 67.1%; viability, T/C [24]: 85.7%; viability, T/C [25]: 82.6%; viability, T/C [26]: 87.4%; viability, T/C [27]: 84.8%; viability, T/C [28]: 76.5%; viability, T/C [29]: 57%; viability, T/C [30]: 81.9%; viability, T/C [31]: 85.1%; viability, T/C [32]: 82%; viability, T/C [33]: 77%; viability, T/C [34]: 74%; viability, T/C [35]: 54.7%
O=C(C=Cc1cccc(S(=O)(=O)Nc2ccccc2)c1)NO + Cc1ccccc1N=Nc1ccc(NC(=O)c2ccnn2C)c(C)c1 | 1.57 | 1.73 | 1.37 | 1.53 | 1.58 | 86.6 | 80 | 77.1 | 56.6 | 36.6 | 2.17 | 89.2 | 88.1 | 77.6 | 68 | 32 | 2.44 | 76.7 | 96.8 | 69.1 | viability, T/C [21]: 56.8%; viability, T/C [22]: 31.2%; viability, T/C [23]: 1.92%; viability, T/C [24]: 70.9%; viability, T/C [25]: 87.2%; viability, T/C [26]: 73.3%; viability, T/C [27]: 62.9%; viability, T/C [28]: 28.2%; viability, T/C [29]: 1.87%; viability, T/C [30]: 74.6%; viability, T/C [31]: 76.3%; viability, T/C [32]: 68.1%; viability, T/C [33]: 63.1%; viability, T/C [34]: 32%; viability, T/C [35]: 2.57%
O=C(c1cc(Cc2n[nH]c(=O)c3ccccc23)ccc1F)N1CCN(C(=O)C2CC2)CC1 + CC(CO)NC(=O)c1cc(-c2ccc(Cl)cc2)nn(-c2cnn(C)c2)c1=O | > 10 | > 10 | > 10 | > 10 | > 10 | 107 | 109 | 78.8 | 124 | 118 | 80.2 | 80 | 114 | 115 | 92.3 | 72.4 | 87.1 | 122 | 124 | 111 | viability, T/C [21]: 104%; viability, T/C [22]: 137%; viability, T/C [23]: 97%; viability, T/C [24]: 120%; viability, T/C [25]: 88.5%; viability, T/C [26]: 85.5%; viability, T/C [27]: 105%; viability, T/C [28]: 119%; viability, T/C [29]: 82.3%; viability, T/C [30]: 126%; viability, T/C [31]: 84.7%; viability, T/C [32]: 128%; viability, T/C [33]: 98.9%; viability, T/C [34]: 64.2%; viability, T/C [35]: 104%
COc1cc(Nc2ncc3c(n2)-c2ccc(Cl)cc2C(c2c(F)cccc2OC)=NC3)ccc1C(=O)O |  |  |  |  |  |  |  |  |  |  |  |  |  |  |  |  |  |  |  |  | viability, T/C (compound 0.0316 µM): 88.6% and 85% and 80.8%; viability, T/C (compound 0.1 µM): 78.9% and 73.3% and 119%; viability, T/C (compound 0.316 µM): 75.5% and 72% and 97.8%; viability, T/C (compound 1 µM): 74.1% and 70.4% and 84.2%; viability, T/C (compound 3.16 µM): 71.2% and 71% and 109%; viability, T/C (compound 10 µM): 72.2% and 65.5% and 117%; IC50 (curve of compound): > 10 µM
Nc1ccccc1NC(=O)c1ccc(CNC(=O)OCc2cccnc2)cc1 + CC(CO)NC(=O)c1cc(-c2ccc(Cl)cc2)nn(-c2cnn(C)c2)c1=O | 2.92 | 4.73 | 3.32 | 4.38 | 3.9 | 79.3 | 101 | 90.8 | 78.8 | 48.2 | 20.5 | 76.8 | 86.9 | 113 | 83 | 68.3 | 16.8 | 92.8 | 87.2 | 110 | viability, T/C [21]: 97.5%; viability, T/C [22]: 51.4%; viability, T/C [23]: 18.7%; viability, T/C [24]: 73.6%; viability, T/C [25]: 66.8%; viability, T/C [26]: 88%; viability, T/C [27]: 105%; viability, T/C [28]: 61.2%; viability, T/C [29]: 21.8%; viability, T/C [30]: 110%; viability, T/C [31]: 114%; viability, T/C [32]: 104%; viability, T/C [33]: 84.1%; viability, T/C [34]: 61.1%; viability, T/C [35]: 8.65%
